Legend:
"5-HT1 -like" receptor = "5-HT1 -like" receptor (Oryctolagus cuniculus, UniProt P49144); assay: Agonist activity, contraction of rabbit lateral saphenous vein rings
Beagle dogs = assay: 14-day oral toxicity in Beagle dogs; assay type: in vivo, dog; conditions: hydrochloride salt, oral gavage, Beagle dogs, 0.25, 0.50, 1.0 and 2.0 mg/kg base once a day for 14 days
Experimental: (§1) The hydrochloride salt of the compound of Synthetic Examples 2/3 was administered orally by gavage to Wistar rats as a solution in distilled water at dosages of 25, 100 and 200 mg/kg base and to Beagle dogs at dosages of 0.25, 0.50, 1.0 and 2.0 mg/kg base once a dav for 14 days. In a separate dog study over 30 days, the dosage of the free base was increased from 2 mg/kg on Day 1 to 100 mg/kg on Day 30. The free base was also administered orally to cynomolgus monkeys at a dosage of 50 mg/kg once a day for 15 days.

cynomolgus monkeys = conditions: cynomolgus monkey, in vivo, po, 50 mg/kg
Experimental: as §1

dog = assay: 30-day escalating-dose toxicity study in dogs; assay type: in vivo; conditions: free base, 30 days, dosage increased from 2 mg/kg on Day 1 to 100 mg/kg on Day 30
Experimental: as §1

Chain of "5-HT1 -like" receptor (P49144 whole entry): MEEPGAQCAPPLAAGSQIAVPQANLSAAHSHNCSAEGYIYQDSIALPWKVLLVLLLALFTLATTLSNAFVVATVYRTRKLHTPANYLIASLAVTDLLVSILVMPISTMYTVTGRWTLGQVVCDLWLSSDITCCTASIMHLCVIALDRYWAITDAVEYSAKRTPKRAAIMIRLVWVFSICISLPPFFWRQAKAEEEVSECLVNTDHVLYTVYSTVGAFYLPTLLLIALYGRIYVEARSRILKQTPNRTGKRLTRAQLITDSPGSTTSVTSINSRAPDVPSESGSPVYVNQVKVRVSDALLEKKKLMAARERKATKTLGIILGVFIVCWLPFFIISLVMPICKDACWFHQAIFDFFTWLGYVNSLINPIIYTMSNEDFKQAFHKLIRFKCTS

Row | Structure (SMILES) | EC50 ("5-HT1 -like" receptor) [nM] | Toxicity (Beagle dogs) | Toxicity (cynomolgus monkeys) | Toxicity (dog)
1 | CN1CCC(c2c[nH]c3ccc(CC4COC(=O)N4)cc23)CC1 (racemic) [4/5, (±)-3-(1-methyl-4-piperidyl)-5-(2-oxo-1,3-oxazolidin-4-yl-methyl)-1H-indole] | 501 | – | – | –
2 | CN(C)CCc1c[nH]c2ccc(C[C@H]3COC(=O)N3)cc12 [2/3, (S)-N,N-dimethyl-2-[5-(2-oxo-1,3-oxazolidin-4-ylmethyl)-1H-indol-3-yl]ethylamine 0.9 isopropanolate 0.5 hydrate] | 100 | No evidence of toxicity | No evidence of toxicity | No evidence of toxicity

From patent publication US5863935A, “Therapeutic heterocyclic compounds” (Zeneca Limited, priority 1990, dated 1999)
